Source: PMC10279527, “Structural basis of metabolite transport by the chloroplast outer envelope channel OEP21” (Nature Structural & Molecular Biology, 2023)
pIC50, pKd: −log10 of the molar value. “And” between values parts separate entries of the source, which are not always exact repeats. Identical values can stand only once. Like-named read-outs stand apart in the source and are kept apart here.

Assays:
[1] = biological target: T1, OEP21 variants (single point mutations, ΔL5) (Pisum sativum, UniProt Q9SM57, R51A); assay: Fluorescence polarization binding of MANT-ATP to OEP21 variants; set-up: species or system garden pea; conditions: OEP21 variant R51A, unit inferred;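 note: KD obtained by fitting fluorescence polarization data to a one-site binding model, each experiment run in triplicate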
T1 construct: made in house; host or cells: Escherichia coli BL21(DE3) (described for OEP21)

[2] = biological target: T2, OEP21 variants (single point mutations, ΔL5) (Pisum sativum, UniProt Q9SM57, R174A); assay: as above; set-up: species or system garden pea; conditions: OEP21 variant R174A; for pKd: unit inferred
T2 construct: made in house; host or cells: Escherichia coli BL21(DE3) (described for OEP21)

[3] = biological target: T3, OEP21 variants (single point mutations, ΔL5) (Pisum sativum, UniProt Q9SM57, R33A); assay: as above; set-up: species or system garden pea; conditions: OEP21 variant R33A; for pKd: unit inferred
T3 construct: made in house; host or cells: Escherichia coli BL21(DE3) (described for OEP21)

[4] = biological target: T4, OEP21 variants (single point mutations, ΔL5) (Pisum sativum, UniProt Q9SM57, K19A); assay: as above; set-up: species or system garden pea; conditions: OEP21 variant K19A; for pKd: unit inferred
T4 construct: made in house; host or cells: Escherichia coli BL21(DE3) (described for OEP21)

[5] = biological target: T5, OEP21 variants (single point mutations, ΔL5) (Pisum sativum, UniProt Q9SM57, R66A); assay: as above; set-up: species or system garden pea; conditions: OEP21 variant R66A; for pKd: unit inferred
T5 construct: made in house; host or cells: Escherichia coli BL21(DE3) (described for OEP21)

[6] = biological target: T6, OEP21 variants (single point mutations, ΔL5) (Pisum sativum, UniProt Q9SM57, K104A); assay: as above; set-up: species or system garden pea; conditions: OEP21 variant K104A; for pKd: unit inferred
T6 construct: made in house; host or cells: Escherichia coli BL21(DE3) (described for OEP21)

[7] = biological target: T7, OEP21 variants (single point mutations, ΔL5) (Pisum sativum, UniProt Q9SM57, R157A); assay: as above; set-up: species or system garden pea; conditions: OEP21 variant R157A; for pKd: unit inferred
T7 construct: made in house; host or cells: Escherichia coli BL21(DE3) (described for OEP21)

[8] = biological target: T8, OEP21 variants (single point mutations, ΔL5) (Pisum sativum, UniProt Q9SM57, R142A); assay: as above; set-up: species or system garden pea; conditions: OEP21 variant R142A; for pKd: unit inferred
T8 construct: made in house; host or cells: Escherichia coli BL21(DE3) (described for OEP21)

[9] = biological target: T9, OEP21 variants (single point mutations, ΔL5) (Pisum sativum, UniProt Q9SM57, C109A); assay: as above; set-up: species or system garden pea; conditions: OEP21 variant C109A; for pKd: unit inferred
T9 construct: made in house; host or cells: Escherichia coli BL21(DE3) (described for OEP21)

[10] = biological target: T10, OEP21 variants (single point mutations, ΔL5) (Pisum sativum, UniProt Q9SM57, R140A); assay: as above; set-up: species or system garden pea; conditions: OEP21 variant R140A; for pKd: unit inferred
T10 construct: made in house; host or cells: Escherichia coli BL21(DE3) (described for OEP21)

[11] = biological target: T11, OEP21 variants (single point mutations, ΔL5) (Pisum sativum, UniProt Q9SM57, K90A); assay: as above; set-up: species or system garden pea; conditions: OEP21 variant K90A; for pKd: unit inferred
T11 construct: made in house; host or cells: Escherichia coli BL21(DE3) (described for OEP21)

OmpX = OmpX (Escherichia coli, UniProt P0A917); assay: 2D NMR control with OmpX in LDAO micelles; set-up: species or system bacterial; conditions: up to 5 mM GAP; control for nonspecific binding
Procedure: (a) (left) 2D-[^15N,^1H]-TROSY NMR spectra of 400 µM ^2H,^15N-labeled OmpX in LDAO micelles in 20 mM sodium phosphate, pH6.0, 50 mM NaCl, 0.5 mM EDTA and the indicated concentrations of D-GAP at 30 °C and 1.2 GHz magnetic field. (right) 2D-projections along the ^1H dimension of the 2D-spectra shown on (left). […] (right) Relative NMR peak intensities derived from the data in (left) and (middle). Buffer: 10 mM Na-phosphate pH7.0, 20 mM NaCl, 7% (v/v) D2O. […] (right) 150 mM MgCl2 was titrated into 15 mM potassium phosphate (Pi). Buffer conditions for all experiments were: 10 mM HEPES pH7.0, 20 mM NaCl.

OEP21ΔL5 = biological target: T12, OEP21ΔL5 (Pisum sativum, UniProt Q9SM57, DEL70-80); assay: FP competition with preformed MANT-ATP/OEP21ΔL5 complex; format: binding, garden pea
T12 construct: made in house; host or cells: Escherichia coli BL21(DE3) (described for OEP21)
Procedure: (§1) FP assays were performed on a spectrofluorometer FP-8300 (Jasco) equipped with a water bath cooling system MCM-100 (Jasco). […] A buffer containing no EDTA was used when MgCl2 was present. […] KD values were derived by fitting the data to a one-site binding model. […] All FP experiments were performed as triplicates.

OEP21 wt [12] = biological target: T13, OEP21 wt (Pisum sativum, UniProt Q9SM57); assay: FP competition with preformed MANT-ATP/OEP21-WT complex; format: binding, garden pea
T13 construct: made in house
Procedure: as §1

OEP21 wt [13] = biological target: T13, OEP21 wt; assay: SEC metabolite translocation assay with OEP21 WT proteoliposomes;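 for all read-outs here: control is liposomes reconstituted without protein, prepared alongside. Molecule content inside liposomes measured after Triton X-100 disruption. PD10 SEC runs done with or without ATP and/or MgCl2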; format: biochemical, garden pea; conditions: for Relative content (% of mean Control): Fig. 4f, WT proteoliposomes, molecules of increasing molecular weight
[14] = individual determinations, read-out: KD1-KD3

2′-(or-3′)-O-(N-methylanthraniloyl) adenosine 5′-triphosphate [Mant-ATP]
pKd [1, 14]: 6.85 and 7.00 and 6.69
pKd ([1]; read-out: mean KD): 6.82
pKd [2, 14]: 6.37 and 6.52 and 6.53
rel KD1-KD3 ([2]; relative to mean KD of wt): 2.357 and 1.648 and 1.632
pKd ([2]; read-out: mean KD): 6.47
pKd [3, 14]: 6.85 and 6.90
rel KD1-KD3 ([3]; relative to mean KD of wt): 0.7802 and 0.6868 and 0.6923
pKd ([3]; read-out: mean KD): 6.88
pKd [4, 14]: 6.66 and 6.59 and 6.57
rel KD1-KD3 ([4]; relative to mean KD of wt): 1.214 and 1.423 and 1.467
pKd ([4]; read-out: mean KD): 6.60
pKd [5, 14]: 6.67 and 6.71 and 6.72
rel KD1-KD3 ([5]; relative to mean KD of wt): 1.176 and 1.071 and 1.044
pKd ([5]; read-out: mean KD): 6.70
pKd [6, 14]: 6.68 and 6.53 and 6.69
rel KD1-KD3 ([6]; relative to mean KD of wt): 1.148 and 1.632 and 1.115
pKd ([6]; read-out: mean KD): 6.63
pKd [7, 14]: 6.61 and 6.59 and 6.47
rel KD1-KD3 ([7]; relative to mean KD of wt): 1.363 and 1.418 and 1.841
pKd ([7]; read-out: mean KD): 6.55
pKd [8, 14]: 6.57 and 6.48
rel KD1-KD3 ([8]; relative to mean KD of wt): 1.484 and 1.819 and 1.467
pKd ([8]; read-out: mean KD): 6.54
pKd [9, 14]: 6.72 and 6.66 and 6.67
rel KD1-KD3 ([9]; relative to mean KD of wt): 1.044 and 1.209 and 1.17
pKd ([9]; read-out: mean KD): 6.68
pKd [10, 14]: 6.63 and 6.54 and 6.51
rel KD1-KD3 ([10]; relative to mean KD of wt): 1.28 and 1.571 and 1.687
pKd ([10]; read-out: mean KD): 6.56
pKd [11, 14]: 6.53 and 6.57 and 6.61
rel KD1-KD3 ([11]; relative to mean KD of wt): 1.61 and 1.489 and 1.357
pKd ([11]; read-out: mean KD): 6.57

O=C[C@H](O)COP(=O)(O)O [GAP, D-glyceraldehyde-3-phosphate]
effect on 2D-NMR spectra of OmpX (in words) (OmpX): did not observe any effect
pIC50 (OEP21ΔL5; IC50 (dissociation of MANT-ATP), OEP21ΔL5, 1 µM MANT-ATP, 1 µM protein): ~1.59
pIC50 (OEP21ΔL5; dL5, individual determinations, read-out: IC50): 1.51 and 1.69
pIC50 (OEP21ΔL5; dL5, read-out: mean IC50): 1.59
pIC50 (OEP21 wt [12]; IC50 (dissociation of MANT-ATP), OEP21-WT, 1 µM MANT-ATP, 1 µM protein): ~2.00
pIC50 (OEP21 wt [12]; IC50, wt, individual determinations): 1.96 and 1.97
pIC50 (OEP21 wt [12]; mean IC50, wt): 1.96
Relative GAP content (% of mean Control) (OEP21 wt [13]; ED Fig. 10a, WT 0.05uM, Mean): 95.6446 % of mean Control
Relative GAP content (% of mean Control) (OEP21 wt [13]; ED Fig. 10a, WT 0.5uM, Mean): 62.4352 % of mean Control
Relative GAP content (% of mean Control) (OEP21 wt [13]; ED Fig. 10a, WT 5uM, Mean): 38.701 % of mean Control
Relative GAP content (% of mean Control) (OEP21 wt [13]; ED Fig. 10b, +ATP (2 mM per legend), OEP21 0.05uM, Mean): 91.3817 % of mean Control
Relative GAP content (% of mean Control) (OEP21 wt [13]; ED Fig. 10b, +ATP (2 mM per legend), OEP21 0.5uM, Mean): 64.3295 % of mean Control
Relative GAP content (% of mean Control) (OEP21 wt [13]; ED Fig. 10b, +ATP (2 mM per legend), OEP21 5uM, Mean): 54.5372 % of mean Control
Relative GAP content (% of mean Control) (OEP21 wt [13]; ED Fig. 10c, WT, 0.05M NaCl, Mean): 38.1976 % of mean Control
Relative GAP content (% of mean Control) (OEP21 wt [13]; ED Fig. 10c, WT, 1M NaCl, Mean): 59.8192 % of mean Control
Relative GAP content (% of mean Control) (OEP21 wt [13]; ED Fig. 10c, WT, […] NaCl, Mean): 46.186 % of mean Control
Relative content (% of mean Control) (OEP21 wt [13]; Mean): 48.3557 % of mean Control
Relative content (% of mean Control) (OEP21 wt [13]; single replicates): 46.601 % of mean Control and 48.0754 % of mean Control and 50.3906 % of mean Control
Relative GAP content (% of mean Control) (OEP21 wt [13]; Fig. 4d, WT, 5mM ATP, Mean): 40.9262 % of mean Control
Relative GAP content (% of mean Control) (OEP21 wt [13]; Fig. 4d, WT, 10mM MgCl2+5mM ATP, Mean): 54.2808 % of mean Control
Relative GAP content (% of mean Control) (OEP21 wt [13]; Fig. 4d, WT, 10mM MgCl2, Mean): 63.8331 % of mean Control
passage through the OEP21 channel (in words) (OEP21 wt [13]; proteoliposomes, SEC, deadtime ~4 min): passed through the channel
